For 88 molecules, melting point results are on record in a melting point compilation (Tetko et al.; mined from patent text by program, amines drawn as free bases though some values may be those of a salt).

SMILES strings stand for the structures. Some results are limits rather than exact numbers.

One may read the melting point as the temperature of the solid-liquid transition. `Clc1cc2c(cc1Cl)CC=C2` registered a melting point of 76 °C. Under `Cc1c(Cc2cccc(C(F)(F)F)c2)sc2c(-c3cccc(C(=O)NCC(N)=O)c3)cccc12` stands 187 to 188 °C; under `Cc1ccc(C(=O)c2ccc(CC#N)n2C)cc1`, 102 to 105 °C. Molecule `CCCCCCCCCCc1ccc(CNc2ccc(C(=O)O)cc2)cc1` registered a melting point of 135 to 136 °C. Under `Cc1cc2[nH]c(=O)c(=O)[nH]c2cc1Cl` stands greater than 330 °C; under `CCSCCn1c(=N)sc2cc(OC(F)(F)C(F)(F)F)ccc21`, less than 50 °C; under `CC1N=C(c2cccnc2)NC1=O` (stereo not drawn), 238 to 241 °C.

`Cc1[nH]c2ccccc2c1Cc1ccncc1`: the melting point lay within 126 to 127 °C.

For `CCc1cc(-c2ccc(C(C)=O)cc2)ccc1OC`, the melting point fell in the range of 69 to 72 °C.

Molecule `Cn1nc(C(F)(F)F)cc1Oc1cc(Cl)c(Cl)cc1[N+](=O)[O-]` registered a melting point of 99 to 100 °C. Consider `O=S1(=O)c2cccc3cccc(c23)N1CCCN1CCN(c2ccc(F)cc2)CC1`, for which the melting point lay in the range of 95 to 97 °C. `CCOC(=O)c1cc2c3n(ccc-2n1)CC(CO)=N3` came in with a melting point of 227 to 229 °C. Molecule `CCC(=O)c1ccc(CCNS(=O)(=O)c2ccc(OC)cc2)cc1` displayed a melting point of 107 °C.

Turning to `O=C1CC2(C(=O)N1)C(=O)N(Cc1ccc(Cl)c(Cl)c1)c1ccccc12` (stereo not drawn), the melting point fell in the range of 205 to 207 °C. Under `CS(=O)(=O)Nc1ccccc1OC1CCCCC1` stands 113 to 115 °C. Turning to `CC(C(=O)NC1CCCCC1)N1CCN(c2ccccn2)CC1` (stereo not drawn), the melting point is 126 to 128 °C.

As to `CC(C)(C)C(NC(=O)c1ccc(Cl)cc1)Nc1c(Nc2cccnc2Cl)c(=O)c1=O` (stereo not drawn), the melting point fell in the range of 259 to 261 °C. Molecule `Clc1ccc(NN=Cc2cccs2)cc1` came in with a melting point of 137 °C.

For `C#CCOc1ccc(NCc2ccccc2)c(C(=O)c2ccc(C3CC3)cc2)c1`, the melting point was 116 to 118 °C. Molecule `CC(C)c1ccc(OCC(=O)N2C(=O)OC[C@H]2Cc2ccccc2)cc1` registered a melting point of 104 to 105 °C. Next, `COc1cc(C)c(C=CC(C)=CC=CC(C)=CC(=O)n2ccnc2)c(C)c1C`: 184 to 185 °C.

For the molecule `O=C1C=C(c2ccc(Cl)c(S(=O)(=O)N3CCCC3)c2)OC1`, the melting point was 108 to 111 °C.

Molecule `O=C(N[C@@H](CSc1ccc(C(F)(F)F)cc1[N+](=O)[O-])C(=O)O)OCc1ccccc1` returned a melting point of 150 to 153 °C. Molecule `N=C(N)Nc1ncc(Cl)c2ccc(S(=O)(=O)N(CCOC3CCCCO3)C3(C(=O)O)CCCC3)cc12` (stereo not drawn) showed a melting point of 281 to 289 °C. `COC(=O)C1CN(C(=O)c2cc(OC)c(OC)c(OC)c2)CCN1C(=O)OC(C)(C)C` (stereo not drawn) registered a melting point of 163 to 164 °C. Next, `CC1CCC2C(=O)N(NC(=O)CCc3cc(C(C)(C)C)c(O)c(C(C)(C)C)c3)C(=O)C2C1` (stereo not drawn): 87 to 92 °C; `c1coc(-c2nc(COc3ccc(CCCn4ccnc4)cc3)co2)c1`: 92 to 93 °C.

In the case of `Cc1cc(=O)c(OCc2ccccc2)c(C(=O)NC2CCCCC2)o1`, the melting point lay within 118 to 120 °C. Under `NC(=O)CCCCCCBr` stands 84 °C.

Molecule `O=[N+]([O-])c1ccc(Oc2ccc(Oc3ccc([N+](=O)[O-])c(O)c3)cc2)cc1O` gave a melting point of 242 to 245 °C. As to `CCOc1ncc(C(C)=O)cc1C(=O)Nc1c(C(N)=O)nn(C2CN(C(=O)OC(C)(C)C)C2)c1CC`, the melting point lay within 220 to 223 °C. Take `N#CCOC(=O)c1ccc([N+](=O)[O-])cc1`: the melting point was 80 to 82 °C. Under `O=C(O)c1ccccc1N1CCN(CC(O)COc2ccc(O)cc2)CC1` (stereo not drawn) stands 235 to 237 °C; under `CCC(C(=O)N(C)C)n1cc(C)c(-c2ccccc2OC)n1` (stereo not drawn), 79 to 81 °C; under `CCOc1cc(Cc2cnc(N)nc2N)cc2c1OC(C)(C)C=C2C(C)(O)CC` (stereo not drawn), 127 to 128 °C.

In turn, `COCC1CN(c2ccc(C3CCC(O)CC3)cc2)C(=O)O1` (racemic) yielded a melting point of 109 to 110 °C.

The molecule `CCc1nc2c(N)nc3ccccc3c2n1CC1(O)CCS(=O)(=O)CC1` returned a melting point greater than 250 °C. Next, `N#Cc1ccc2c(c1)C(=O)N1CCC[C@@H]1CO2`: 164 to 165 °C. Next, `CCOC(=O)c1cc(Br)c(C(=O)OCC)cc1Cl`: 125 °C; `CCOC(=O)C(O)CCn1cnc2c(=O)[nH]c(N)nc21` (stereo not drawn): 161 to 163 °C; `O=C(O)c1ccccc1Oc1ccc(C(F)(F)F)cc1NS(=O)(=O)c1ccc(Cl)cc1`: 164 °C. Turning to `O=c1c2c(CCc3ccncc3)n[nH]c2c2cccnc2n1-c1ccccc1`, the melting point is 267 to 269 °C. `CC(Cc1ccc(OC(C)C)cc1)NCC(O)c1cccc(Cl)c1` (stereo not drawn) came in with a melting point of 58 to 61 °C.

`CC1(C)C(=O)N(c2ccc(C#N)c(C(F)(F)F)c2)C(=O)N1CCCO` returned a melting point of 131 to 132 °C. On to `O=C(NCC(F)(F)F)C1CC(=O)N(Cc2ccccc2)C1` (stereo not drawn), for which the melting point lay in the range of 110 to 112 °C. Next, `COC(=O)c1sccc1-c1ccccc1`: 63 to 66 °C; `CCc1cc(C(=O)c2ccccc2Cl)c(-n2c(C)nnc2CO)s1`: 140 to 141 °C; `O=C(NCc1c[nH]c(=S)n1[C@H]1CCc2c(F)cc(F)cc2C1)c1ccco1`: 227 to 231 °C. Molecule `C[Si](C)(C)CCCNc1ccc(C(=O)O)cc1` displayed a melting point of 164 to 165 °C.

Regarding `COc1ccc2nc(Oc3c(Cl)cc(NS(=O)(=O)c4ccc(C(F)(F)F)cc4Cl)cc3Cl)sc2c1`, the melting point fell in the range of 164 to 165 °C.

On to `Nc1ccc(C(=O)O)c2c1OCCO2`, for which the melting point is 186 °C.

With `COc1ccc(N2C(=O)C(=C3CCCN3C)c3ccccc32)cc1F`, the melting point lay within 68 to 71 °C. The molecule `CSc1cc(C)nc(SC)c1NC(=O)CCCCSc1nc2ccccc2s1` displayed a melting point of 121 to 123 °C. For the molecule `CC(C)(C)OC(=O)[C@@H]1CCCN1C(=O)C1CCCC1SC(=O)c1ccccc1` (stereo partly drawn), the melting point fell in the range of 68 to 70 °C. For `CCc1cccc(-c2ccc(S(=O)(=O)N3c4ccccc4CC3C(=O)NCc3ccc(CC(=O)O)cc3)cc2)c1` (stereo not drawn), the melting point was 98 °C. `CC(=O)N[C@@H](CO)C(=O)NCc1ccccc1` showed a melting point of 147 to 148 °C. `CC(=O)SCC(=Cc1cc(F)cc(F)c1)C(=O)NCCC(=O)OCc1ccccc1` had a melting point of 82 °C. Under `Nc1cc(-c2ccccc2)n(-c2ccc(S(N)(=O)=O)cc2)n1` stands 286 to 290 °C; under `O=[N+]([O-])c1cc(Cl)c2c(c1)C(F)(C(F)(F)F)C(F)(F)O2` (stereo not drawn), 46 to 47 °C.

As for `COP(=O)(Cc1ccc2ccc(CP(=O)(OC)OC)cc2c1)OC`, the melting point lay within 87 to 88 °C. Turning to `COc1ccc(C(C)CN2C=CC=C3C2=Nc2cc(OC)ccc2S(=O)(=O)N3C)cc1` (stereo not drawn), the melting point is 128 to 131 °C. As for `COc1cc(OC)c2cc(S(=O)(=O)Cc3ccc(OC)c([N+](=O)[O-])c3)c(=O)oc2c1`, the melting point is 224 to 225 °C.

The molecule `NS(=O)(=O)c1ccccc1S(=O)(=O)NC1CC1` returned a melting point of 202 to 203 °C.

Molecule `O=C(NCc1ccc(Br)cc1F)OCc1ccccc1` registered a melting point of 82 to 84 °C. Under `CCONC(=O)c1cc(-c2ncc(C(F)(F)F)cc2Cl)ccc1Cl` stands 162 to 163 °C; under `COC(=O)CCn1nc(-c2c(-c3ccccc3)nn3ccccc23)ccc1=O`, 133 to 134 °C. Next, `CC(=O)N1CCC(C2=C(C#N)C(c3cccc(C#N)c3Br)c3c[nH]nc3N2)CC1` (stereo not drawn): greater than 280 °C. Under `CCCCCCCCCCCCS(=O)(=O)N1CCCSC1=C[N+](=O)[O-]` stands 116 to 117 °C; under `Nc1c(C(=O)O)c(=O)[nH]c2ccccc12`, greater than 250 °C; under `COc1ccc(CCCOCCCCCNCC(O)c2cc(Cl)c(N)c(Cl)c2)cc1` (stereo not drawn), 63 to 64 °C. In the case of `COc1ccc2c(c1)c(CC(=O)N(C)O)c(C)n2C(=O)c1ccc(Cl)cc1`, the melting point is 170 to 171 °C. Next, `CNc1nc(-c2cccc(-c3ccc(C)c(C)c3)c2)c2cc(OC)c(OC)cc2n1`: 149 to 151 °C. Under `CCCCOc1ccccc1-c1ncc(C(=O)OCC)c(=O)[nH]1` stands 123 to 125 °C. Next, `O=C(O)CSc1cccc(CNC(=O)C2Cc3ccccc3N2S(=O)(=O)c2ccc(-c3cccc(C(F)(F)F)c3)cc2)c1` (stereo not drawn): 75 °C; `Cc1cc(N)nc(CCc2nc3cc(-c4ccc(C#N)cc4)cnc3[nH]2)c1`: 218 °C; `CCN(CC)CCNC(=O)Cn1ncc(-c2ccccc2)c1-c1ccccc1`: 67 to 69 °C.

Take `CC(C)(C)OC(=O)NCc1nc2c(C(F)(F)F)cccc2c(=O)o1`: the melting point stood at 176 °C.

As for `CCCCCCCCCCCC(=O)N[C@H](CC(=O)c1ccc(C)cc1)C(=O)OCC`, the melting point was in the range of 60 to 60.5 °C. Molecule `COc1ccc(-c2[nH]nc3c2C(=O)c2c(NC(=O)NNC(=O)c4ccc(N)cc4)cccc2-3)cc1` had a melting point of 247 °C. Under `CC1(C)COc2ccc(C[C@H]3NC(=O)O[C@H]3c3cccc(Cl)c3)cc21` (racemic) stands 183 to 184 °C; under `CCC(CC(=O)OC)Sc1c(C(N)=O)sc2ccc(OC)cc12` (stereo not drawn), 134 to 136 °C; under `Nc1cccc(NC(=O)c2ccc(CNC(=O)OCc3cccnc3)cc2)c1`, 156 °C. Under `Cn1ncc(CN2C(=O)c3ccccc3C2=O)c1-c1ccc(Cl)cc1C(=O)c1ccccc1F` stands 153 to 155 °C; under `O=C(C=Cc1ccc2c(c1)OCO2)N1CCc2c([nH]c3ccccc23)C1c1ccc2c(c1)OCO2` (stereo not drawn), 233 °C. Under `CNC(=O)C(C)(C)N(OC(C)(C)C#N)C(C)(C)C` stands 96 to 101 °C; under `COc1cc(OC)c(CN2CCc3cc(OCc4ccccc4)c(OC)cc3C2)c(OC)c1`, 129 to 131 °C; under `Oc1ccc2ccc(Oc3c(Cl)cc(C(F)(F)F)cc3Cl)cc2c1`, 98 °C. `CCOC(=O)C(=O)Nc1cc(C#N)c(Cl)cc1[N+](=O)[O-]` yielded a melting point of 80 to 82 °C.
